Data: patent publication US7973047B2, “Beta-Secretase modulators and methods of use” (Amgen Inc., priority 2010, dated 2011)

Test system: Aβ40 in conditioned medium of cells stably expressing Amyloid Precursor Protein (APP)
Assay: BACE cell-based assay: Aβ40 in conditioned medium by sandwich ELISA
Settings: cell based assay data of Table 4; unit inferred; read-out: Cell Assay
Method in brief: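 APP-stable cells grown 24 h in DMEM/10% FBS, then exposed to compounds for 24 h in a 10-point dose series starting at 100 or 10 μM, 0.1% DMSO final. Medium Aβ40 measured by pAb40/biotinylated 6E10 sandwich ELISA with Europium time-resolved fluorescence; IC50 from percent inhibition.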

Question: How did the IC50 turn out when `CC(C)(C)Cc1cnc2c(c1)[C@@H](NC[C@@H](O)[C@H](Cc1ccc(F)cc1)NC(=O)C(F)F)CC1(CCC1)O2` [compound 630] was run?
Answer: 0.0364 µM

Question: `CC(C)(C)Cc1cnc2c(c1)[C@@H](NC[C@@H](O)[C@H](Cc1ccc(F)cc1)NC(=O)C(F)(F)F)CC1(CCC1)O2` [compound 631] was tested. Which IC50 did it give?
Answer: 0.057 µM

Question: For `CC(C)(C)Cc1cnc2c(c1)[C@@H](NC[C@@H](O)[C@H](Cc1ccc(F)cc1)NC(=O)CC(F)(F)F)CC1(CCC1)O2` [compound 632], which IC50 is on record?
Answer: 0.308 µM

Question: How did the IC50 turn out when `COCCC(=O)N[C@@H](Cc1ccc(F)cc1)[C@H](O)CN[C@H]1CC2(CCC2)Oc2ncc(CC(C)(C)C)cc21` [compound 633] was run?
Answer: 0.0171 µM

Question: With `CC(=O)N[C@@H](Cc1cscn1)[C@H](O)CN[C@H]1CC2(CCC2)Oc2ncc(CC(C)(C)C)cc21` [compound 634, N-((1S,2R)-3-(((4′S)-6′-(2,2-dimethylpropyl)-3′,4′-dihydrospiro[cyclobutane-1,2′-pyrano[2,3-b]pyridin]-4′-yl)amino)-2-hydroxy-1-(1,3-thiazol-4-ylmethyl)propyl)acetamide] as the compound, how does the IC50 read?
Answer: 0.0142 µM

Question: How did the IC50 turn out when `CC(=O)N[C@@H](Cc1ccncc1)[C@H](O)CN[C@H]1CC2(CCC2)Oc2ncc(CC(C)(C)C)cc21` [compound 635, N-((1S,2R)-3-(((4′S)-6′-(2,2-dimethylpropyl)-3′,4′-dihydrospiro[cyclobutane-1,2′-pyrano[2,3-b]pyridin]-4′-yl)amino)-2-hydroxy-1-(4-pyridinylmethyl)propyl)acetamide] was run?
Answer: 0.00304 µM

Question: For `CCCc1nc(C[C@H](NC(C)=O)[C@H](O)CN[C@H]2CC3(CCC3)Oc3ncc(CC(C)(C)C)cc32)cs1` [compound 636, N-((1S,2R)-3-(((4′S)-6′-(2,2-dimethylpropyl)-3′,4′-dihydrospiro[cyclobutane-1,2′-pyrano[2,3-b]pyridin]-4′-yl)amino)-2-hydroxy-1-((2-propyl-1,3-thiazol-4-yl)methyl)propyl)acetamide], which IC50 is on record?
Answer: 0.0146 µM

Question: How did the IC50 turn out when `CCCc1scnc1C[C@H](NC(C)=O)[C@H](O)CN[C@H]1CC2(CCC2)Oc2ncc(CC(C)(C)C)cc21` [compound 637, N-((1S,2R)-3-(((4′S)-6′-(2,2-dimethylpropyl)-3′,4′-dihydrospiro[cyclobutane-1,2′-pyrano[2,3-b]pyridin]-4′-yl)amino)-2-hydroxy-1-((5-propyl-1,3-thiazol-4-yl)methyl)propyl)acetamide] was run?
Answer: 0.922 µM

Question: `CC(=O)N[C@@H](Cc1cncs1)[C@H](O)CN[C@H]1CC2(CCC2)Oc2ncc(CC(C)(C)C)cc21` [compound 638, N-((1S,2R)-3-(((4′S)-6′-(2,2-dimethylpropyl)-3′,4′-dihydrospiro[cyclobutane-1,2′-pyrano[2,3-b]pyridin]-4′-yl)amino)-2-hydroxy-1-(1,3-thiazol-5-ylmethyl)propyl)acetamide] was tested. Which IC50 did it give?
Answer: 0.00232 µM

Question: `CC(=O)N[C@@H](Cc1csc(C)n1)[C@H](O)CN[C@H]1CC2(CCC2)Oc2ncc(CC(C)(C)C)cc21` [compound 639, N-((1S,2R)-3-(((4′S)-6′-(2,2-dimethylpropyl)-3′,4′-dihydrospiro[cyclobutane-1,2′-pyrano[2,3-b]pyridin]-4′-yl)amino)-2-hydroxy-1-((2-methyl-1,3-thiazol-4-yl)methyl)propyl)acetamide] was tested. Which IC50 did it give?
Answer: 0.0237 µM

Question: For `CC(=O)N[C@@H](Cc1ccnc(C)c1)[C@H](O)CN[C@H]1CC2(CCC2)Oc2ncc(CC(C)(C)C)cc21` [compound 640, N-((1S,2R)-3-(((4′S)-6′-(2,2-dimethylpropyl)-3′,4′-dihydrospiro[cyclobutane-1,2′-pyrano[2,3-b]pyridin]-4′-yl)amino)-2-hydroxy-1-((2-methyl-4-pyridinyl)methyl)propyl)acetamide], which IC50 is on record?
Answer: 0.00989 µM

Question: For `CC(=O)N[C@@H](Cc1nc(Cl)cs1)[C@H](O)CN[C@H]1CC2(CCC2)Oc2ncc(CC(C)(C)C)cc21` [compound 641, N-((1S,2R)-1-((4-chloro-1,3-thiazol-2-yl)methyl)-3-(((4′S)-6′-(2,2-dimethylpropyl)-3′,4′-dihydrospiro[cyclobutane-1,2′-pyrano[2,3-b]pyridin]-4′-yl)amino)-2-hydroxypropyl)acetamide], which IC50 is on record?
Answer: 0.00682 µM

Question: Which IC50 does the source give for `CC(=O)N[C@@H](Cc1ccnc(Cl)c1)[C@H](O)CN[C@H]1CC2(CCC2)Oc2ncc(CC(C)(C)C)cc21` [compound 642, N-((1S,2R)-1-((2-chloro-4-pyridinyl)methyl)-3-(((4′S)-6′-(2,2-dimethylpropyl)-3′,4′-dihydrospiro[cyclobutane-1,2′-pyrano[2,3-b]pyridin]-4′-yl)amino)-2-hydroxypropyl)acetamide] here?
Answer: 0.00337 µM

Question: How did the IC50 turn out when `COc1cc(C[C@H](NC(C)=O)[C@H](O)CN[C@H]2CC3(CCC3)Oc3ncc(CC(C)(C)C)cc32)ccn1` [compound 643, N-((1S,2R)-3-(((4′S)-6′-(2,2-dimethylpropyl)-3′,4′-dihydrospiro[cyclobutane-1,2′-pyrano[2,3-b]pyridin]-4′-yl)amino)-2-hydroxy-1-((2-(methyloxy)-4-pyridinyl)methyl)propyl)acetamide] was run?
Answer: 0.00679 µM

Question: For `CC(=O)N[C@@H](Cc1cc(C)nc(Cl)c1)[C@H](O)CN[C@H]1CC2(CCC2)Oc2ncc(CC(C)(C)C)cc21` [compound 644, N-((1S,2R)-1-((2-chloro-6-methyl-4-pyridinyl)methyl)-3-(((4′S)-6′-(2,2-dimethylpropyl)-3′,4′-dihydrospiro[cyclobutane-1,2′-pyrano[2,3-b]pyridin]-4′-yl)amino)-2-hydroxypropyl)acetamide], which IC50 is on record?
Answer: 0.00632 µM

Question: For `CC(=O)N[C@@H](Cc1ccnc(OCC(F)(F)F)c1)[C@H](O)CN[C@H]1CC2(CCC2)Oc2ncc(CC(C)(C)C)cc21` [compound 645, N-((1S,2R)-3-(((4′S)-6′-(2,2-dimethylpropyl)-3′,4′-dihydrospiro[cyclobutane-1,2′-pyrano[2,3-b]pyridin]-4′-yl)amino)-2-hydroxy-1-((2-((2,2,2-trifluoroethyl)oxy)-4-pyridinyl)methyl)propyl)acetamide], which IC50 is on record?
Answer: 0.00516 µM

Question: For `CC(=O)N[C@@H](Cc1cc2ccccc2o1)[C@H](O)CN[C@H]1CC2(CCC2)Oc2ncc(CC(C)(C)C)cc21` [compound 646, N-((1S,2R)-1-(1-benzofuran-2-ylmethyl)-3-(((4′S)-6′-(2,2-dimethylpropyl)-3′,4′-dihydrospiro[cyclobutane-1,2′-pyrano[2,3-b]pyridin]-4′-yl)amino)-2-hydroxypropyl)acetamide], which IC50 is on record?
Answer: 0.0529 µM

Question: How did the IC50 turn out when `CC(=O)N[C@@H](Cc1ccnc(C(F)(F)F)n1)[C@H](O)CN[C@H]1CC2(CCC2)Oc2ncc(CC(C)(C)C)cc21` [compound 647, N-((1S,2R)-3-(((4′S)-6′-(2,2-dimethylpropyl)-3′,4′-dihydrospiro[cyclobutane-1,2′-pyrano[2,3-b]pyridin]-4′-yl)amino)-2-hydroxy-1-((2-(trifluoromethyl)-4-pyrimidinyl)methyl)propyl)acetamide] was run?
Answer: 0.152 µM

Question: For `CC(=O)N[C@@H](Cc1ccc(C(F)(F)F)cc1)[C@H](O)CN[C@H]1CC2(CCC2)Oc2ncc(CC(C)(C)C)cc21` [compound 648], which IC50 is on record?
Answer: 0.189 µM

Question: For `CC(=O)N[C@@H](Cc1ccn(C)c(=O)c1)[C@H](O)CN[C@H]1CC2(CCC2)Oc2ncc(CC(C)(C)C)cc21` [compound 649], which IC50 is on record?
Answer: 0.03 µM

Question: With `CC(=O)N[C@@H](Cc1ccc(F)cc1)[C@H](O)CN[C@H]1CC2(CCC2)Oc2ncc(CC(C)(C)C#N)cc21` [compound 650] as the compound, how does the IC50 read?
Answer: 0.0202 µM

Question: How did the IC50 turn out when `CC(=O)N[C@@H](Cc1cccc(F)c1)[C@H](O)CN[C@H]1CC2(CCC2)Oc2ncc(CC(C)(C)C#N)cc21` [compound 651] was run?
Answer: 0.00424 µM
